In patent publication US10399966B2, “Compounds for treatment of trypanosomes and neurological pathogens and uses thereof” (The University of North Carolina at Chapel Hill, priority 2016, dated 2019):
Like-named read-outs stand apart in the source and are kept apart here.

Key:
T. b. brucei = experiment: In vitro antitrypanosomal activity against T. brucei (growth inhibition); format: cell-based, Trypanosoma brucei; conditions: Trypanosoma brucei; for EC90: read-out: T. brucei EC90
Method in brief: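 Dose-response EC50 against T. brucei parasites with 0.4% DMSO final, 48 h at 37 °C; parasite density quantified by ATP luminescence (CellTiter-Glo).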

Trypanosoma cruzi = experiment: Efficacy against T. cruzi in vitro; format: cell-based; conditions: Trypanosoma cruzi, Table 10; for EC50: read-out: T.cruzi EC50; for EC90: read-out: T.cruzi EC90
[1] = Metabolic stability in human liver microsomes; format: in vitro ADME; conditions: for Human microsomes, percentage of compound remaining / half-life at 1.5 μM / Human microsomes t1/2: Table 12; for Human microsomes, percentage of compound remaining: after 60 min (where t1/2 > 60 min); for half-life at 1.5 μM / Human microsomes t1/2: 37° C., NADPH (1 mM), microsomes 0.5 mg/mL, test compounds 1.5 μM; for half-life at 1.5 μM: read-out: Human microsomes t1/2
Description: (§1) Metabolic stability was evaluated using liver microsomes derived from mouse and human sources. Microsomal incubations were carried out according to a protocol described previously (Wang et al., Antimicrob. Agents Chemother. 54:2507 (2010)) with modifications. Briefly, substrate stock solutions were prepared in DMSO and DMSO content was kept at 0.5% (v/v) in final incubations. Incubation mixtures ([…]), liver microsomes (0.5 mg/mL) from mouse (pool of 1000, CD-1 male mouse) or human (pool of 50, mixed gender) (XenoTech LLC, Lenexa, Kans.) in a phosphate buffer (100 mM, pH 7.4) containing 3.3 mM MgCl2. After a 5-minute pre-equilibration period at 37° C., reactions (in triplicate) were initiated by adding the NADPH cofactor (1 mM). For NADPH-independent reactions, the cofactor was replaced with water. Aliquots (10 μl) of the reaction mixtures were removed at 0, 15, 30, and 60 minutes and individually mixed with 200 μL of ice-cold acetonitrile containing internal standard. The mixtures were vortex-mixed, and precipitated protein was removed by centrifugation at 2,250×g for 15 min. The supernatant fractions were dried using a 96-well microplate evaporator (Apricot Designs Inc., Covina, Calif.) under N2 at 50° C. and reconstituted with 100 μL 50% methanol containing 0.1% trifluoroacetic acid before UPLC-MS/MS analysis. In vitro half-life (t1/2) was obtained by analyzing the substrate concentration vs. incubation time curve using the one-phase exponential decay model (GraphPad Prism® 5.0, San Diego, Calif.).

[2] = Metabolic stability in mouse liver microsomes; format: in vitro ADME
Description: as §1

[3] = Distribution between mouse plasma and brain (brain penetration, ip); format: in vivo; conditions: for Brain/plasma ratio / [compound]Brain / [compound]Plasma: Table 14, mice, single ip dose 5 mg/kg, one hour post-dose; for Kp at 1 h / concentration at 1 h: mouse; for Kp at 1 h: brain and plasma, read-out: Average brain/plasma ratio; for [compound]Brain / [compound]Plasma: ± SEM of 3 mice (compound 3: 6 mice)
Method in brief: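 Mice (n=3) received a single 5 mg/kg ip dose in 7% Tween 80, 3% ethanol, 5% DMSO, 0.9% saline and were sacrificed 1 h post-dose. Plasma and acetonitrile brain homogenates analysed by LC/MS/MS; brain concentration corrected for 2.5% vasculature volume, assuming 1 g = 1 mL.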

[4] = Mouse oral pharmacokinetics; format: in vivo; conditions: for percent of the Cmax remaining: mouse oral 50 mg/kg
Description: […] Experiments were performed with groups of three mice per compound. Plasma was separated and extracted with acetonitrile for measurements of compound concentrations by liquid chromatography/tandem mass spectrometry.

human hepatocytes HepG2 = experiment: Cytotoxicity against HepG2 cells; conditions: for EC50: Homo sapiens, HepG2, read-out: HepG2 EC50; for EC90: read-out: HepG2 EC90, concentration required to inhibit growth by 90%, human hepatocytes
[5] = tested on: human lymphocytes CRL-8155; experiment: Cytotoxicity against CRL-8155 cells; conditions: human lymphoblasts; for EC50: read-out: CRL-8155 EC50, concentration required to inhibit growth by 50%; for EC90: read-out: CRL-8155 EC90, concentration required to inhibit growth by 90%
Description: The selectivity of each compound for the parasite over each of the two cell lines was calculated.

[6] = Table 7, read-out: T. brucei EC50
[7] = Table 8, read-out: T. brucei EC50
[8] = Table 11, read-out: T. b. brucei EC50
[9] = Table 12, read-out: T. b. brucei EC50
[10] = Table 9, read-out: T. brucei EC50
[11] = both sexes, human, liver microsomes, pH 7.4
[12] = Table 12, 37° C., NADPH (1 mM), microsomes 0.5 mg/mL, test compounds 1.5 μM
[13] = Table 8, groups of 3 mice (compound 3: ± SEM of 6 mice)
[14] = intraperitoneal, 5 mg/kg, Table 7, groups of 3 mice
[15] = intraperitoneal, 5 mg/kg, Table 8, groups of 3 mice
[16] = brain, intraperitoneal, 5 mg/kg, Table 7, groups of 3 mice, read-out: Average [compound] brain
[17] = plasma, intraperitoneal, 5 mg/kg, Table 7, groups of 3 mice, read-out: Average [compound] plasma
[18] = Table 13, mice, single 50 mg/kg oral gavage, vehicle Tween 80 (7%), EtOH (3%), DMSO (5%) in 0.9% NaCl, ± SEM of 3 mice
[19] = Table 13, mice, single 50 mg/kg oral gavage, vehicle Tween 80 (7%), EtOH (3%), DMSO (5%) in 0.9% NaCl, ± SEM of 3 mice, read-out: Cmax

| Compound | EC50 (Trypanosoma cruzi) | EC90 (Trypanosoma cruzi) | Human microsomes, percentage of compound remaining [1] | half-life at 1.5 μM [1, 11] | Mouse microsomes t1/2 [2, 12] | Brain/plasma ratio [3] | Kp at 1 h [3, 14] | concentration at 1 h [3, 16] | concentration at 1 h [3, 17] | melting point | Human microsomes t1/2 [1] | EC50 (T. b. brucei; [6]) | EC50 (T. b. brucei; [8]) | EC50 (T. b. brucei; [9]) | EC50 (T. b. brucei; [10]) | EC90 (T. b. brucei; Table 9) | EC50 (human hepatocytes HepG2) | EC90 (human hepatocytes HepG2) | EC50 [5] | EC90 [5] | also measured |
| --- | --- | --- | --- | --- | --- | --- | --- | --- | --- | --- | --- | --- | --- | --- | --- | --- | --- | --- | --- | --- | --- |
| O=C(Nc1ccc2sc(-c3ccc(F)c(F)c3)nc2c1)N1CCCC1 [Compound 2, 2-(3,4-Difluorophenyl)-5-(N-pyrrolidylamido)benzothiazole] | 339 nM | 483 nM | 66% | > 60 min | 14 min | 1.81 ± 0.458 | 1.81 ± 0.793 | 4250 ± 1200 nM | 2610 ± 1260 nM | 221 to 223 °C |  | 91.8 nM | 91.8 nM | 91.8 nM | 91.8 nM | 181 nM | > 50000 nM | > 50000 nM | 33900 nM | > 50000 nM | EC50 (T. b. brucei; [7]): 91.8 nM; half-life at 3 μM ([1]; both sexes, human, liver microsomes, pH 7.4, Table 5, read-out: Microsome t1/2 (min) Human): > 60 min; Microsome t1/2 (min) Mouse ([2]; Table 5): 13.8 min; Average [compound] brain [3, 13]: 4.25 ± 1.20 µM; Average [compound] plasma [3, 13]: 2.61 ± 1.26 µM; Kp at 1 h ([3]; intraperitoneal, 5 mg/kg, Table 5, mouse brain penetration (60 min), n = 3): 1.81 ± 0.793; Kp at 1 h [3, 15]: 1.81 ± 0.793; concentration at 60 min ([3]; plasma, intraperitoneal, 5 mg/kg, Table 5 r15, mouse brain penetration (60 min), n = 3): 2610 ± 1260 nM; Mouse oral PK Tlast ([4]; Table 5): 480 min; Mouse oral PK Average AUC ([4]; Table 5, n = 3): 408 ± 95 (n = 3) min * μmol/L; AUC0 min-∞ [4, 18]: 443.3 ± 43.07 µM·min; Cmax [4, 19]: 2010 ± 460 nM; Cmax ([4]; mouse, plasma, po, 50 mg/kg, Table 5, n = 3, read-out: Mouse oral PK Average Cmax): 2000 ± 820 nM; Tmax ([4]; mouse, plasma, po, 50 mg/kg, Table 5, read-out: Mouse oral PK Tmax (converted)): 60 min |
| O=C(Nc1ccc2sc(-c3cccc(F)c3)nc2c1)N1CCCC1 [Compound 6, 2-(3-Fluorophenyl)-5-(N-pyrrolidylamido)benzothiazole] | 631 nM | 697 nM |  |  | 12 min | 1.01 ± 0.037 | 1.01 ± 0.064 | 2280 ± 920 nM | 2220 ± 798 nM | 232 to 233 °C | 37 min | 158 nM | 158 nM | 158 nM | 158 nM | 391 nM | > 50000 nM | > 50000 nM | > 50000 nM | > 50000 nM | [compound]Brain [3]: 2.28 ± 0.532 µM; [compound]Plasma [3]: 2.22 ± 0.461 µM |
| O=C(Nc1ccc2sc(-c3ccccc3)nc2c1)N1CCCC1 [Compound 7, 2-Phenyl-5-(N-pyrrolidylamido)benzothiazole] | 564 nM | 861 nM |  |  | 18 min | 1.24 ± 0.157 | 1.24 ± 0.272 | 4240 ± 1210 nM | 3400 ± 569 nM | 210 to 211 °C | 30 min | 325 nM | 325 nM | 325 nM | 325 nM | 817 nM | > 50000 nM | > 50000 nM | > 50000 nM | > 50000 nM | [compound]Brain [3]: 4.24 ± 0.698 µM; [compound]Plasma [3]: 3.403 ± 0.328 µM |
| O=C(Nc1ccc2oc(-c3ccccc3)nc2c1)c1ccccc1 [Compound 15, 5-Benzamido-2-phenylbenzoxazole] |  |  |  |  | 17 min |  |  |  |  |  | 60 min |  |  |  |  |  |  |  |  |  | EC50 (T. b. brucei; read-out: T. b. brucei EC50): > 10000 nM; EC50 (T. b. brucei; read-out: T. brucei EC50): > 10000 nM; EC90 (T. b. brucei): > 10000 nM |
| O=C(Nc1ccc2oc(-c3ccccc3)nc2c1)N1CCCCC1 [Compound 16, 2-Phenyl-5-N-piperidylamidobenzoxazole] |  |  | 77% | > 60 min | 11 min |  |  |  |  | 207 to 209 °C |  |  |  | 2800 nM | 2800 nM | 9300 nM |  |  |  |  |  |
| O=C(Nc1ccc2sc(-c3ccccc3)nc2c1)c1ccccc1 [Compound 17, 5-Benzamido-2-phenylbenzothiazole] |  |  | 53% | > 60 min | 50 min |  |  |  |  |  |  |  |  | 2380 nM | 2380 nM | 7740 nM |  |  |  |  |  |

Continued, in another order:

| EC50 (Trypanosoma cruzi) | EC90 (Trypanosoma cruzi) | Human microsomes, percentage of compound remaining [1] | half-life at 1.5 μM [1, 11] | Mouse microsomes t1/2 [2, 12] | Brain/plasma ratio [3] | Kp at 1 h [3, 14] | concentration at 1 h [3, 16] | concentration at 1 h [3, 17] | melting point | Human microsomes t1/2 [1] | Compound | EC50 (T. b. brucei; [6]) | EC50 (T. b. brucei; [8]) | EC50 (T. b. brucei; [9]) | EC50 (T. b. brucei; [10]) | EC90 (T. b. brucei; Table 9) | EC50 (human hepatocytes HepG2) | EC90 (human hepatocytes HepG2) | EC50 [5] | EC90 [5] | also measured |
| --- | --- | --- | --- | --- | --- | --- | --- | --- | --- | --- | --- | --- | --- | --- | --- | --- | --- | --- | --- | --- | --- |
| 826 nM | 1070 nM | 62% | > 60 min | 17 min |  |  |  |  | 230 to 232 °C |  | O=C(Nc1ccc2sc(-c3ccccc3)nc2c1)N1CCCCC1 [Compound 23, 2-Phenyl-5-(N-piperidylamido)benzothiazole] |  | 366 nM | 366 nM | 366 nM | 809 nM | > 50000 nM | > 50000 nM | > 50000 nM | > 50000 nM |  |
| 320 nM | 503 nM |  |  | 11 min |  |  |  |  | 216 to 217 °C | 8.9 min | O=C(Nc1ccc2sc(-c3cccc(F)c3)nc2c1)N1CCCCC1 [Compound 29, 2-(3-Fluorophenyl)-5-(N-piperidylamido)benzothiazole] |  | 174 nM | 174 nM | 174 nM | 602 nM | > 50000 nM | > 50000 nM | > 50000 nM | > 50000 nM |  |
| 562 nM | 652 nM | 96% | > 60 min |  | 7.71 ± 1.63 |  |  |  | 217 to 218 °C |  | O=C(Nc1ccc2sc(-c3ccc(F)c(F)c3)nc2c1)N1C[C@@H](F)[C@H](F)C1 [Compound 35, (3R,4R)-2-(3,4-Difluorophenyl)-5-(3,4-difluoro-N-pyrrolidylamido)benzothiazole] |  | 114 nM | 114 nM | 114 nM | 747 nM | > 50000 nM | > 50000 nM | 27100 nM | > 50000 nM | EC50 (T. b. brucei; [7]): 114 nM; Mouse microsomes, percentage of compound remaining ([2]; Table 12, after 60 min (where t1/2 > 60 min)): 67%; half-life at 1.5 μM ([2]; male, CD-1, mouse, liver microsomes, pH 7.4, Table 12, 37° C., NADPH (1 mM), microsomes 0.5 mg/mL, test compounds 1.5 μM, read-out: Mouse microsomes t1/2): > 60 min; [compound]Brain [3]: 16.2 ± 2.88 µM; [compound]Plasma [3]: 2.19 ± 0.424 µM; Kp at 1 h [3, 15]: 7.71 ± 1.63; concentration at 1 h ([3]; brain, intraperitoneal, 5 mg/kg, Table 8, groups of 3 mice (compound 3: ± SEM of 6 mice), read-out: Average [compound] brain): 16200 ± 2880 nM; concentration at 1 h ([3]; plasma, intraperitoneal, 5 mg/kg, Table 8, groups of 3 mice (compound 3: ± SEM of 6 mice), read-out: Average [compound] plasma): 2190 ± 424 nM; AUC0 min-∞ [4, 18]: 13515 ± 224.6 µM·min; Cmax [4, 19]: 11000 ± 580 nM; percent of the Cmax remaining ([4]; 24 h time point): 34%; percent of the Cmax remaining ([4]; 32 h time point): > 17% |
